Measured values published in ChEMBL document CHEMBL5465560, “Selectivity Literature for EUbOPEN Chemogenomic Library” (2024).

How the values were obtained:
[1] = molecular target: Ribosomal protein S6 kinase alpha-1 (Homo sapiens, UniProt Q15418); assay: Selectivity interaction (KinomeScan (DiscoverX)) EUB0001079a RPS6KA1; conditions: at 1 µM
[2] = molecular target: Homeodomain-interacting protein kinase 2 (Homo sapiens, UniProt Q9H2X6); assay: Selectivity interaction (KinomeScan (DiscoverX)) EUB0001079a HIPK2; conditions: at 1 µM
[3] = molecular target: Mitogen-activated protein kinase 9 (Homo sapiens, UniProt P45984); assay: Selectivity interaction (Millipore kinase profiler) EUB0000124b MAPK9; conditions: at 10 µM
[4] = molecular target: Mitogen-activated protein kinase 3 (Homo sapiens, UniProt P27361); assay: Selectivity interaction (ActivX KiNativ screen (ex vivo kinase selectivity in human PBMCs)) EUB0001619a MAPK3; format: cell-based; conditions: PBMC, at 1 µM
[5] = molecular target: MAP/microtubule affinity-regulating kinase 3 (Homo sapiens) (UniProt P27448); assay: Selectivity interaction (Kinase panel (DSF assay)) EUB0001558a MARK3
[6] = test system: Phosphatidylinositol 4,5-bisphosphate 3-kinase catalytic subunit alpha isoform (Homo sapiens), P42336 [E545K]; assay: (§1) Selectivity interaction (KinomeScan (DiscoverX)) EUB0000045b PIK3CA
[7] = test system: Phosphatidylinositol 4,5-bisphosphate 3-kinase catalytic subunit alpha isoform (Homo sapiens), P42336 [I800L]; assay: as §1
[8] = test system: Phosphatidylinositol 4,5-bisphosphate 3-kinase catalytic subunit alpha isoform (Homo sapiens), P42336 [M1043I]; assay: as §1
[9] = test system: Phosphatidylinositol 4,5-bisphosphate 3-kinase catalytic subunit alpha isoform (Homo sapiens), P42336 [E545A]; assay: as §1
[10] = test system: Phosphatidylinositol 4,5-bisphosphate 3-kinase catalytic subunit alpha isoform (Homo sapiens), P42336 [Q546K]; assay: as §1
[11] = test system: Phosphatidylinositol 4,5-bisphosphate 3-kinase catalytic subunit alpha isoform (Homo sapiens), P42336 [H1047Y]; assay: as §1
[12] = test system: Phosphatidylinositol 4,5-bisphosphate 3-kinase catalytic subunit alpha isoform (Homo sapiens), P42336 [E542K]; assay: as §1
[13] = test system: Phosphatidylinositol 4,5-bisphosphate 3-kinase catalytic subunit alpha isoform (Homo sapiens), P42336 [C420R]; assay: as §1
[14] = molecular target: Phosphatidylinositol 4,5-bisphosphate 3-kinase catalytic subunit alpha isoform (Homo sapiens) (UniProt P42336); assay: as §1
[15] = test system: Phosphatidylinositol 4,5-bisphosphate 3-kinase catalytic subunit alpha isoform (Homo sapiens), P42336 [H1047L]; assay: as §1
[16] = molecular target: Serine/threonine-protein kinase/endoribonuclease IRE1 (Homo sapiens) (UniProt O75460); assay: Selectivity interaction (KinomeScan (DiscoverX)) EUB0000045b ERN1
[17] = molecular target: T1, Mitogen-activated protein kinase kinase kinase 7 (Homo sapiens) (UniProt O43318); assay: Selectivity interaction (KinomeScan (DiscoverX)) EUB0000595a MAP3K7; conditions: at 10 µM
T1 sequence (whole entry): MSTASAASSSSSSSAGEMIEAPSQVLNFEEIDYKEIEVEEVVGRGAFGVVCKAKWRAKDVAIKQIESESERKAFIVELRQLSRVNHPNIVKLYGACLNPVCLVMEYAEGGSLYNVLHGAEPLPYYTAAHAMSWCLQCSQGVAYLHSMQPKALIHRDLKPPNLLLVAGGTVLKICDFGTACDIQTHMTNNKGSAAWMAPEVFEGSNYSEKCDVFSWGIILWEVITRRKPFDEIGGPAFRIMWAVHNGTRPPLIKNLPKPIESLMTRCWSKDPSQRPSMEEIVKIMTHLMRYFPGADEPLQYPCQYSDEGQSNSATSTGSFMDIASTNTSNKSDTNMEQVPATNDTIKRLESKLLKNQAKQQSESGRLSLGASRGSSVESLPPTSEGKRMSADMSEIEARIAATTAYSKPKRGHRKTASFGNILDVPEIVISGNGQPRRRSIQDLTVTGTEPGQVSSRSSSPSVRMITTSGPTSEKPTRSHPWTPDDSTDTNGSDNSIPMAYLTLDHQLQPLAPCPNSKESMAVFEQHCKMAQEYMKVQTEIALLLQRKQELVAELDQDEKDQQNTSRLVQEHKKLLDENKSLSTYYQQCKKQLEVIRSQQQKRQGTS

[18] = Selectivity interaction (ActivX KiNativ screen (kinase selectivity in THP-1 cell lysates)) EUB0000639a STLK6; conditions: Selectivity number of off-targets 0; Selectivity number of targets 283; Source Knowledge https://pubmed.ncbi.nlm.nih.gov/28498658/; at 0.04 µM
[19] = molecular target: Serine/threonine-protein kinase WNK2 (Homo sapiens) (UniProt Q9Y3S1); assay: Selectivity interaction (ProQinase) EUB0000171b WNK2
[20] = molecular target: Ribosomal protein S6 kinase alpha-3 (Homo sapiens, UniProt P51812); assay: Selectivity interaction (KinomeScan (DiscoverX)) EUB0001049a RPS6KA3; conditions: at 1 µM
Nav1.5 (SCN5A) = Nav1.5 (SCN5A) (Homo sapiens, UniProt Q14524); assay: Selectivity interaction (Panel of kinases, GPCRs, ion channels and transporters (enzymatic assay)) EUB0000223bCl SCN5A
[21] = Selectivity interaction (NMDA Channel site assay : rat brain cortex ) EUB0000877a GRIN1
[22] = molecular target: Mitogen-activated protein kinase kinase kinase 10 (Homo sapiens) (UniProt Q02779); assay: Selectivity interaction (LanthaScreen Eu Kinase Binding Assay) EUB0001632a MAP3K10; conditions: at 10 µM
[23] = molecular target: T2, Interleukin-1 receptor-associated kinase 4 (Homo sapiens) (UniProt Q9NWZ3); assay: Selectivity interaction (Kinase panel (Z-LYTE Assay)) EUB0001632a IRAK4; conditions: at 10 µM
T2 sequence (whole entry): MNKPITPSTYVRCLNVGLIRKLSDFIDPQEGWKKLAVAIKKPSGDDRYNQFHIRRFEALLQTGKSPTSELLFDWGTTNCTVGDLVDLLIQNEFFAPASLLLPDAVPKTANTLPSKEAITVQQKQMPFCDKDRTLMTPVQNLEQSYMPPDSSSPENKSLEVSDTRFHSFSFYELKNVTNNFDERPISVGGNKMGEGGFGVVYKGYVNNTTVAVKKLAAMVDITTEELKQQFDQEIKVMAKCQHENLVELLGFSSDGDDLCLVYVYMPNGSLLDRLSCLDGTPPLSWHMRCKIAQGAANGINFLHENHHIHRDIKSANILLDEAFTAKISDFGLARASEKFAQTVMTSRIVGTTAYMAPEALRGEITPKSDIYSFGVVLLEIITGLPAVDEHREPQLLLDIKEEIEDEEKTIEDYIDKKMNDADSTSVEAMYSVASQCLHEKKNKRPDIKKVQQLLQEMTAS

[24] = molecular target: Serine/threonine-protein kinase MARK1 (Homo sapiens) (UniProt Q9P0L2); assay: Selectivity interaction (KinomeScan (DiscoverX)) EUB0000695a MARK1; conditions: at 100 nM

Sequence of Phosphatidylinositol 4,5-bisphosphate 3-kinase catalytic subunit alpha isoform (Homo sapiens), P42336 [M1043I] (P42336 whole entry M1043I, canonical isoform): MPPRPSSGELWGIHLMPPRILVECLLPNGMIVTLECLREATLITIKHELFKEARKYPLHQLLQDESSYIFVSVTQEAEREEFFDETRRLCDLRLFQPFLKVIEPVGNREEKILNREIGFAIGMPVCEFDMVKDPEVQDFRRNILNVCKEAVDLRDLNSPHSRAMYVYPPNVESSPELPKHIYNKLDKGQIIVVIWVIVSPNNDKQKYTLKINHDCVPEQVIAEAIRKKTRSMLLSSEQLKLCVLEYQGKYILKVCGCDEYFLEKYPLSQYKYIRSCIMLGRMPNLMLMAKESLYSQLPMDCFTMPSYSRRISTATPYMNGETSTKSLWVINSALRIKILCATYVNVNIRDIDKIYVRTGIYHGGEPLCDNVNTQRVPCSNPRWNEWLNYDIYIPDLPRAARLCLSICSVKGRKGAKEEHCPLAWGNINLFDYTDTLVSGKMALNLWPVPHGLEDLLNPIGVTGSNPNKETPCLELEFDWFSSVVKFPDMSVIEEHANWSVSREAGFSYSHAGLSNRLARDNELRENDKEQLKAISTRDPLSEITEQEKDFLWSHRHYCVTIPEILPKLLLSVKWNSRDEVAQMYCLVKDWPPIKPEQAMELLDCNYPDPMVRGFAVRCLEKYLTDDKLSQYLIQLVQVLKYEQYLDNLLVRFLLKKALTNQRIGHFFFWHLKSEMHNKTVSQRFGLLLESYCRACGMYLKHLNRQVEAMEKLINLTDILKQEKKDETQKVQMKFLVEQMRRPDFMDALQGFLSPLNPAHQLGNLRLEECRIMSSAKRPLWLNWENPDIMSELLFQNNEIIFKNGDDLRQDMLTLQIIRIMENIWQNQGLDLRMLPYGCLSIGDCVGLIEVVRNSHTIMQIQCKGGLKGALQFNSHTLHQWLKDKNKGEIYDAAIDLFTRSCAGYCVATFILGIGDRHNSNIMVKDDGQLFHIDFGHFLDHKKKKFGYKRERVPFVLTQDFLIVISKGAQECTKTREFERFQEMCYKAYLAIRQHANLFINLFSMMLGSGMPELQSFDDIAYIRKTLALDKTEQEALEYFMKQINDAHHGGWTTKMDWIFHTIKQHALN
Sequence of Phosphatidylinositol 4,5-bisphosphate 3-kinase catalytic subunit alpha isoform (Homo sapiens) (P42336 whole entry, canonical isoform): as the sequence (P42336 whole entry M1043I, canonical isoform) above, with I1043M counted along it
Sequence of Serine/threonine-protein kinase WNK2 (Homo sapiens) (Q9Y3S1 whole entry): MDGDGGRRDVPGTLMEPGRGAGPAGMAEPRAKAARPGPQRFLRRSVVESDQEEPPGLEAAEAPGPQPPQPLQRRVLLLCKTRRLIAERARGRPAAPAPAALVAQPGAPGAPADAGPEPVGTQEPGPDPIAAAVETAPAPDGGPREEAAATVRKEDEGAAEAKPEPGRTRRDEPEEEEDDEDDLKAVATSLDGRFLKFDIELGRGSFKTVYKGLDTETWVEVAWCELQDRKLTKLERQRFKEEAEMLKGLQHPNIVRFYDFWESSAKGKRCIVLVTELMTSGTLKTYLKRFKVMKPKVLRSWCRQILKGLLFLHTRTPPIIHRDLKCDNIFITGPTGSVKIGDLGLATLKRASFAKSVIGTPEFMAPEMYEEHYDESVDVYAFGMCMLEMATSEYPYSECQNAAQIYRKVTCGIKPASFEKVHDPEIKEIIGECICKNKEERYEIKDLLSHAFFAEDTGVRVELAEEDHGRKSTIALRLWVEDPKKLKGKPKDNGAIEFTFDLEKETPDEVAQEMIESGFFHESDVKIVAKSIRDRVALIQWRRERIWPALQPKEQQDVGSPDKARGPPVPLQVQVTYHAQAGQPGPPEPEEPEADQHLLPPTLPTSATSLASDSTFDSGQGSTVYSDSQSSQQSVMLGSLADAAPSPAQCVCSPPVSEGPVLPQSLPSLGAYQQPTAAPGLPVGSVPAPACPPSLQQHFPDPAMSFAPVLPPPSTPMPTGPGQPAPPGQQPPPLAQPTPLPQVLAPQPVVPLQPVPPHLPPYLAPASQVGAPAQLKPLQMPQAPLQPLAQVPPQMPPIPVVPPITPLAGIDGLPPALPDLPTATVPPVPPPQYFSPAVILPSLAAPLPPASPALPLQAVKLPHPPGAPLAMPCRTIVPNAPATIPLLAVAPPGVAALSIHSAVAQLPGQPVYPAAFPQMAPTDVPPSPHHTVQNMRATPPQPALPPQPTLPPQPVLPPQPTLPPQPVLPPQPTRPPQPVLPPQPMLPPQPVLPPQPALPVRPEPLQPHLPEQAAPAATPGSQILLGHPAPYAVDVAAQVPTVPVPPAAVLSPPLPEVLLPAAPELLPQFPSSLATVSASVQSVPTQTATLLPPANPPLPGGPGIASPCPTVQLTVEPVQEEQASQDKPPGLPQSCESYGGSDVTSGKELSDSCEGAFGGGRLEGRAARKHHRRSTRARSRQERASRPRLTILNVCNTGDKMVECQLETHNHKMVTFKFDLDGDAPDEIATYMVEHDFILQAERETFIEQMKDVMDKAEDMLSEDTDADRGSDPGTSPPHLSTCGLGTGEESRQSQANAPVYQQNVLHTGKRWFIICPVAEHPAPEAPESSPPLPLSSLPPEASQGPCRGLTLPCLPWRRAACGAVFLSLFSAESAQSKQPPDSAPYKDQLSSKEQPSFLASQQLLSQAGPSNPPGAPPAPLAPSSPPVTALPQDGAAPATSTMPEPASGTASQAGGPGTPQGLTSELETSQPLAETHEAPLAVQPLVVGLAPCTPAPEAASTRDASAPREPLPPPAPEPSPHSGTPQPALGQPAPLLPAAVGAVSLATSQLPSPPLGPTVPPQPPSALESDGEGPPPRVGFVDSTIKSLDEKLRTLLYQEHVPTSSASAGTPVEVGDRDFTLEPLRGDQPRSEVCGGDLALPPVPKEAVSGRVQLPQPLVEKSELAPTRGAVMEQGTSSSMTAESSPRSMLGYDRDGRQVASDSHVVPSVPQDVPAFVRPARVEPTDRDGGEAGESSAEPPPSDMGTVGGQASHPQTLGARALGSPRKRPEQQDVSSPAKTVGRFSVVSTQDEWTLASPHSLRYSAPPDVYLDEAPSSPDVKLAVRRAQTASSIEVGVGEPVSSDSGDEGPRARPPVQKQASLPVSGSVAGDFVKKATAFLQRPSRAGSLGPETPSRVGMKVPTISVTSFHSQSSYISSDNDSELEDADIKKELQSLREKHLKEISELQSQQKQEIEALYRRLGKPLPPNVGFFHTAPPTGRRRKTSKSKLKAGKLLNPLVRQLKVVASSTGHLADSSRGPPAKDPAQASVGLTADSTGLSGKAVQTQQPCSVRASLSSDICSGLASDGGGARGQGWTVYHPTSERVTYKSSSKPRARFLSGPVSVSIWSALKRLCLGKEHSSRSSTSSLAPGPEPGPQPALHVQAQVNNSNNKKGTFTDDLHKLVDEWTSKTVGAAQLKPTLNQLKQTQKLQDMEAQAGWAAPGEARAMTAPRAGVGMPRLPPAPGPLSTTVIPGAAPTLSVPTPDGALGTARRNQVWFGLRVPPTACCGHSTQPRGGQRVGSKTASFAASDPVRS
Sequence of Mitogen-activated protein kinase 9 (P45984 whole entry, looked up): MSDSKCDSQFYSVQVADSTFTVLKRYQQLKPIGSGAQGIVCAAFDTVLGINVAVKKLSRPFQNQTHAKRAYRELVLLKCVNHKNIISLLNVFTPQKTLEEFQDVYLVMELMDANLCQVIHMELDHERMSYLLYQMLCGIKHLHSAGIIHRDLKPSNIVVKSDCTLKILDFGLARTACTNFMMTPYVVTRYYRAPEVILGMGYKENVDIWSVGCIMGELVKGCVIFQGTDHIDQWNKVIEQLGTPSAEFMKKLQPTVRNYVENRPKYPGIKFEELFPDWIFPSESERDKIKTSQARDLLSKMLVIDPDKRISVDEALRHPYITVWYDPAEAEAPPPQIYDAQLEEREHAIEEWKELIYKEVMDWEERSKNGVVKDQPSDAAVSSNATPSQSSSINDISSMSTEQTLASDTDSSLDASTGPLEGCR

Nc1cnc(N2CCc3cc(S(=O)(=O)Nc4c(F)cc(Cl)cc4F)cc(N4CCCC4=O)c32)nc1 [TP-020n]
% of control [1]: 100%
% of control [2]: 100%

CC(=O)Nc1cccc(-n2c(=O)n(C3CC3)c(=O)c3c(Nc4ccc(I)cc4F)n(C)c(=O)c(C)c32)c1
% of control [3]: 97%

N#Cc1cccc(-c2c[nH]c3ncnc(N4CCOCC4)c23)c1
% of inhibition [4]: 3%

CC(C)(O)[C@H](F)CN1Cc2cc(NC(=O)c3cnn4cccnc34)c(N3CCOCC3)cc2C1=O
dTM [5]: 1.9 K

C=CC(=O)Nc1cc(-n2c(=O)ccc3cnc4ccc(-c5ccc(NS(C)(=O)=O)cc5)cc4c32)ccc1C
% of control ([6]; at 1 µM): 100%
% of control ([6]; at 10 µM): 74%
% of control ([7]; at 1 µM): 46%
% of control ([7]; at 10 µM): 7.6%
% of control ([8]; at 1 µM): 100%
% of control ([8]; at 10 µM): 24%
% of control ([9]; at 1 µM): 90%
% of control ([9]; at 10 µM): 17%
% of control ([10]; at 1 µM): 100%
% of control ([10]; at 10 µM): 35%
% of control ([11]; at 1 µM): 88%
% of control ([11]; at 10 µM): 26%
% of control ([12]; at 1 µM): 100%
% of control ([12]; at 10 µM): 23%
% of control ([13]; at 1 µM): 100%
% of control ([13]; at 10 µM): 32%
% of control ([14]; at 1 µM): 68%
% of control ([14]; at 10 µM): 9.9%
% of control ([15]; at 1 µM): 100%
% of control ([15]; at 10 µM): 86%
% of control ([16]; at 1 µM): 100%
% of control ([16]; at 10 µM): 99%

COCC(=O)NC/C=C/c1ccc2ncnc(Nc3ccc(Oc4ccc(C)nc4)c(C)c3)c2c1 [CP-724714]
% of control [17]: 100%

CC[C@@H]1[C@H](F)C(=O)N[C@@H]1COc1nccc2cc(C(N)=O)c(OC)cc12 [ZIMLOVISERTIB]
% of inhibition [18]: 16%

C=CC(=O)Nc1cccc(C(=O)Nc2ccc(Nc3cc(-c4[nH]c(SC)nc4C)ccn3)cc2)c1
% of control ([19]; at 1 µM): 98%
% of control ([19]; at 5 µM): 78%

COc1cc(Nc2nc(C)cc(-c3cnn4nc(OC)ccc34)n2)cc(C(F)(F)F)c1
% of control [20]: 98%

COc1cc(C(=O)N2CC[C@@H](O)[C@@H](N)C2)cc2nc(-c3cc4ccccc4n3CC3CC3)n(C)c12
XC50 (Nav1.5 (SCN5A)): 39.8 µM

CCC(=O)N1CC[C@H](Nc2ncnc3c2CN(c2cnc(OC)c(C(F)(F)F)c2)CC3)C1 [LENIOLISIB]
IC50 [21]: > 30 µM

Cn1cc(-n2cnc3c(NCc4nc5cc(Cl)c(Cl)cc5[nH]4)nc(N4CCOCC4)nc32)cn1
% of inhibition [22]: -1.64%
% of control [23]: 2.42%

Cc1cc(F)c(C(=O)Nc2cccc(-c3nncn3C(C)C)n2)cc1-n1cnc(C2CC2)c1
% of control [24]: 100%
